# Data taken from US5587463A, “Texaphyrin macrocycles and metal complexes thereof” (Board of Regents, The University of Texas System, priority 1994, dated 1996).
# Entries after “also recorded” stand apart in the source; their conditions may differ. Like-named read-outs stand apart in the source and are kept apart here.
# Assays:
# [1] = benzene, cited from earlier work
# [2] = Stability to demetallation (sulfide, thiosulfate); format: physicochemical; details: aqueous Na2 S / excess sulfide anion
# Description: The above K1 and K2 (or K1 K2) values are predicated on the assumption that the cadmium complexes under discussion are stable with regards to demetallation and that the equilibria of equations 1 and 2 (or 3) pertain under the conditions of base binding. The first of these concerns is readily apparent: If demetallation occurs, then obviously one is not studying base binding! […] The second concern is particularly important within the context of quantitative work: If, for instance, the starting complex 3.cndot.NO3 is not rigorously five coordinate, then K1 (and perhaps K2 as well) would represent an axial ligand displacement reaction rather than a pure addition process as implied above. Control experiments indicate that the assumption of initial five coordination is reasonable: Independent titrations of 3A .cndot.NO3 with NH4 NO3 and H2 O indicate that only modest and monotonic changes in the chemical shift of the "meso" signals take place over the course of adding ≥50 equivalents of these potentially adventitious ligands.^40 This means that either "complete" binding occurs at 1:1 stoichiometry (essentially ruled out in the case of H2 O on the basis of analytical data), or that these species are poorly coordinating in CHCl3 so that five coordination pertains about cadmium; the latter interpretation appearing more likely.
# Attempts to demetallate complex 3A .cndot.NO3 were made. In an effort to obtain the free sp^2 bridged ligand 2A, the above complex in chloroform was stirred for several hours in the presence of sodium sulfide and independently with sodium thiosulfate. […] In the case of sodium sulfide, this critical conclusion was further supported by FAB MS: Other than the starting cationic complex 3A, no evidence was obtained for any moderate to high molecular weight volatile products in the mass spectrum. […] The rate of this process, however, is strongly pH dependent, the half-life being, for instance, on the order of several hours in the presence of ca. 0.1N HCl.
# [3] = system: rapidly growing tissues including sarcomas and carcinomas; details: in vivo; cited from earlier work
# [4] = Stability in methanol/water or water (decomplexation, decomposition)
# [5] = Imine hydrolysis half-life by pH
# HSV-1 = test: Preliminary in vitro photo-killing of HSV-1 infectivity; format: cell-based
# Description: (§1) Several preliminary in vitro biological studies have been carried out with the cadmium(II) complexes of the 18 and 22 π-electron texaphyrins 14D and 5D. […] This latter result, in particular, augurs well for the eventual use of these materials in prophylactic photodynamic anti-AIDS blood-treatment programs. The 2 log decrease in HSV-1 activity achieved with the texaphyrin systems studied to date is not yet sufficient to completely design a viable protocol: Both HPD and PII, as well as sapphyrin (6D) , reprepared by literature methods^70 provide about a 5 log decrease in viral activity under similar light fluence when irradiated at the appropriate lowest energy transition (630 and 690 nm, respectively). Although a mechanistic comparison with the incompletely characterized hematoporphyrin-derived systems is difficult, a direct structural correspondence exists between the tripyrroledimethine-derived cadmium(II) texaphyrin and free-base sapphyrin systems: The main difference is in overall charge on the photosensitizer. It may thus be that these two macrocycle types are bound to the virus envelope in a different manner; perhaps the sapphyrin "intercalates" into the lipid layer and the charged metallotexaphyrin sits on the surface of the membrane and as such could suffer from deleterious aggregations (which would lower singlet oxygen production).
# [6] = system: enveloped viruses (HSV-1, cytomegalovirus, measles virus, HIV-1); details: previous studies; cited from earlier work
# [7] = Optical and photophysical properties of metallotexaphyrins (laser flash photolysis, fluorescence, singlet oxygen luminescence); format: physicochemical; set-up: tt (triplet lifetime): unit not given here; details: CH3 OH
# Description: Finally, several complexes containing paramagnetic metal ions (e.g. Mn^II, Sm^III, and Eu^III, structures 5c -7c) were investigated.
# Comparison of the initial intensity with that obtained using tetrakis (4-hydroxyphenyl)porphyrin (THPP) as photosensitizer^3b under identical conditions allowed calculation of the quantum yields for production of singlet oxygen (^.phi. 1.cndot.2).
# lymphocyte = test: Preliminary in vitro lymphocyte mitogenic activity study in 10% human serum; format: cell-based; details: irradiation at 767 nm
# Description: (§2) In summary, the new metallotexaphrin complexes discussed here show three important optical properties which make them unique among existing porphyrin-like macrocycles. They absorb strongly in a physiologically important region (i.e. 730-770 nm), form long-lived triplet states in high yield, and act as efficient photosensitizers for the formation of singlet oxygen (see, e.g. FIG. 21).
# herpes simplex (HSV-1) = test: Preliminary in vitro HSV-1 infectivity study in 10% human serum; format: cell-based; details: irradiation at 767 nm
# Description: as §2
# lymphocytes = test: Localization on lymphocytes by absorption and emission measurements; format: cell-based
# Description: as §1
# [8] = Cytotoxicity in the absence of light; format: cell-based; details: preliminary
# Description: In addition, some preliminary toxicity and stability information will begin to emerge from these in vitro experiments.
# [9] = Stability of free-base macrocycle; format: physicochemical
# [10] = 1:1 methanol/water
compound,measurement,setting,value
"cadmium tetraphenyl porphyrin [CdTPP, reference compound]",Kd,"[1]; 29.9°, read-out: K1 (single pyridine axial ligand) (converted)",~370 µM
same,formation of bisligated species,[1]; pyridine-containing,no evidence for the formation of a bisligated CdTPP-(pyr)2
same,demetallation by sulfide,[2],serves to demetallate CdTPP; also recorded: leads to cation loss and precipitation of CdS
CC1=C(CCC(=O)O)c2cc3[nH]c(cc4nc(cc5[nH]c(cc1n2)c(C)c5C(C)O)C(C)=C4C(C)O)c(C)c3CCC(=O)O (stereo not shown) [hematoporphyrin],localization in rapidly growing tissues,[3],localize selectively in rapidly growing tissues including sarcomas and carcinomas
CCC1=C(C)c2cnc3ccccc3ncc3nc(cc4[n-]c(cc1n2)c(CC)c4CC)C(CC)=C3C.[In+3] [In^3+ complex of texaphyrin],hydrolytic stability (in words),[4],kinetically and hydrolytically stable
same,half-lives for decomplexation and/or ligand decomposition,[4]; 1:1 methanol-water,exceed 3 weeks
CCC1=C(C)c2cnc3ccccc3ncc3nc(cc4[n-]c(cc1n2)c(CC)c4CC)C(CC)=C3C.[Cd+2] [complex 2B],half-life for imine hydrolysis,[5]; pH 2,several hours
same,half-life for imine hydrolysis,[5]; pH 7,> 30 days
"CCc1c(CC)c2cc3nc(cc4[nH]c(c(C)c4CC)c4[nH]c(cc5nc(cc1[nH]2)C(CCC(=O)N(CCO)CCO)=C5C)c(CC)c4C)C(C)=C3CCC(=O)N(CCO)CCO [6D, reference compound]",decrease in viral activity,"HSV-1; similar light fluence, at lowest energy transition (630 and 690 nm, respectively)",~5 log
dihematoporphyrin ether [DHE],inactivation of viruses,[6],only those viruses studied which are enveloped or possess a membraneous coat are inactivated
CCC1=C(C)c2cnc3ccccc3ncc3nc(cc4[n-]c(cc1n2)c(CC)c4CC)C(CC)=C3C.O=[N+]([O-])[O-].[Cd+2] [3C NO3],Emission gmax,[7],780 nm
same,S (= phi 1O2 / phi t),[7],0.78
same,tt (triplet lifetime),[7]; deoxygenated,55
same,Absorption gmax (Soret-type band),[7]; first value (Soret),417 nm
same,Absorption gmax (Q-type band),[7]; second value (Q-type),759 nm
same,Dt (triplet quantum yield),[7]; ±5%,0.88
same,D^1 O2 (singlet oxygen quantum yield),[7]; ±10%,0.69
same,Df (fluorescence quantum yield),[7]; ±10%,0.011
same,lymphocyte mitogenic activity,lymphocyte,significant decrease
same,HSV-1 infectivity,herpes simplex (HSV-1),significant decrease
CCC1=C(C)c2cnc3ccccc3ncc3nc(cc4[nH]c(cc1n2)c(CC)c4CC)C(CC)=C3C [5D],localization on lymphocytes,lymphocytes,localize selectively on lymphocytes
same,photo-killing of HSV-1 infectivity,"HSV-1; 20 J/cm^2 at lowest energy absorption (690 nm for 14D, 767 nm for 5D)",ca. 2 log
same,dark antiviral activity,HSV-1; dark,neither 5D nor 14D show any appreciable dark antiviral activity
same,general cytotoxicity,[8],"nor, fortunately, do they show much evidence of general cytotoxicity in the absence of light"
CCC1=C(C)c2cnc3ccccc3ncc3nc(cc4[n-]c(cc1n2)c(CC)c4CC)C(CC)=C3C.[Cd+2] [cadmium(II) complex of 5D],general cytotoxicity,[8],not appreciable cytotoxic
"CCC1=C(C)c2cnc3ccccc3ncc3nc(cc4[nH]c(cc1n2)c(CC)c4CC)C(CC)=C3C [compound 2, 4,5,9,24-tetraethyl-10,23-dimethyl-13,20,25,26,27-pentaazapentacyclo [20.2.1.1^3,6.1^8,11.0^14,19] heptacosa-1,3,5,7,9,11(27), 12,14,16,18,20,22 (25),23-tridecaene]",stability of free-base relative to compound 1,[9],undergoes decomposition far more slowly than compound 1
CCC1=C(C)C2=[N+]3C1=Cc1c(CC)c(CC)c4[n]1[Gd-2]315[N+](=C2)c2cc(C)c(C)cc2[N+]1=CC1=[N+]5C(=C4)C(CC)=C1C.[OH-].[OH-] [complex 7B],half-life,[10],over 5 weeks
same,half-life for decomplexation and/or decomposition,[10],≥ 100 days
same,bleaching of the Soret and Q-type bands,"[10]; 336 h, 35 µM",less than 10%
same,half-life for imine hydrolysis,pH 2,several hours
same,half-life for imine hydrolysis,pH 7,> 30 days
